From US8309760B2, “Process for purification of aryl carboxylic acids” (University of Alabama, priority 2007, dated 2012)
Read-outs that look alike come from different tables or passages of the source.

Assays:
[1] = cited from earlier work
[2] = type: physicochemical
Protocol: Examples illustrating the dissolution and aqueous reconstitution of terephthalic acid from ionic liquids follow the same general experimental protocol. However, it should be noted that the ionic liquids chosen are by far non-limiting examples of terephthalic acid dissolution in ionic liquids. To a vial containing 100 mg of an ionic liquid is added 10 mg of terephthalic acid and the mixture is heated to 75° C. to reduce the viscosity of the resulting liquid. The solution is stirred on a hot plate in an oil bath for 24 hours, whereupon the solutions are visually checked for dissolution. Aqueous reconstitution of the terephthalic acid is achieved by the addition of 500 mL deionized water (polished to 18.1-18.3 MΩ cm). Crystalline terephthalic acid separates from the ionic liquid as a flock, washed with copious amounts of deionized water and vacuum filtered, then dried in ambient conditions and ground with a spatula to give the desired crystalline terephthalic acid.

Compound	solubility of terephthalic acid in water ([1]; temperature of about 300° C.)	solubility in water ([1]; temperatures below about 200° C.)	solubility in various ionic liquids [2]	solubility in water ([1]; no temperature given)
O=C(O)c1ccc(C(=O)O)cc1 [terephthalic acid]	about 40%	insoluble	soluble	
O=Cc1ccc(C(=O)O)cc1 [4-Carboxybenzaldehyde, 4-carboxybenzaldehyde]				soluble
